Experimental data from patent EP1320377B1, “HLA BINDING PEPTIDES AND THEIR USES” (Epimmune Inc., priority 2000, dated 2011).

Molecular target: B*0702 (Homo sapiens, UniProt P01889)
Assay: Class I molecular binding assay (peptide binding to purified HLA class I molecule)
Conditions: binding value of the peptide for HLA allele B*0702; kind of value and unit not given

Which “B*0702” value does the source give for SPALNKMFBQI [Peptide 34.0397] here?
Its value is 0.1800.
